# Experimental data taken from paper PMC9492542, “Brain-restricted mTOR inhibition with binary pharmacology” (Nature, 2022).
# Like-named read-outs stand apart in the source and are kept apart here.
# Key:
# [1] = target: 476 purified kinases (Homo sapiens, UniProt O43293); conditions: ZLYTE
# Protocol: (§1) In vitro kinase inhibition assays were performed by SelectScreen Services (Thermo Fisher Scientific) using either Z’-LYTE (mTOR, Src, Csk, EGFR, HER2 and HGK), Adapta (LRRK2) or LanthaScreen (DDR2) assay format (standardized protocols can be accessed on the SelectScreen website: https://www.thermofisher.com/us/en/home/products-and-services/services/custom-services/screening-and-profiling-services/selectscreen-profiling-service/selectscreen-kinase-profiling-service.html. When indicated, recombinant FKBP12 protein was added to the assay mixture to a final concentration of 10 µM.
# [2] = target: 476 purified kinases (Homo sapiens, UniProt Q8WTQ7); conditions: ZLYTE
# Protocol: as §1
# [3] = target: 476 purified kinases (Homo sapiens, UniProt Q8NFD2)
# Protocol: as §1
# [4] = target: 476 purified kinases (Homo sapiens, UniProt O15075); conditions: ZLYTE
# Protocol: as §1
# [5] = target: 476 purified kinases (Homo sapiens, UniProt Q9H3Y6); conditions: ZLYTE
# Protocol: as §1
# [6] = target: 476 purified kinases (Homo sapiens, UniProt Q9Y2H1)
# Protocol: as §1
# [7] = target: 476 purified kinases (Homo sapiens, UniProt P48426)
# Protocol: as §1
# [8] = target: 476 purified kinases (Homo sapiens, UniProt O00238)
# Protocol: as §1
# [9] = target: 476 purified kinases (Homo sapiens, UniProt Q9NR20); conditions: ZLYTE
# Protocol: as §1
# [10] = target: 476 purified kinases (Homo sapiens, UniProt P22694)
# Protocol: as §1
# [11] = target: 476 purified kinases (Homo sapiens, UniProt Q15139); conditions: ZLYTE
# Protocol: as §1
# [12] = target: 476 purified kinases (Homo sapiens, UniProt Q00535); conditions: ZLYTE
# Protocol: as §1
# [13] = target: 476 purified kinases (Homo sapiens, UniProt Q9NRM7)
# Protocol: as §1
# [14] = target: 476 purified kinases (Homo sapiens, UniProt O15264); conditions: ZLYTE
# Protocol: as §1
# [15] = target: 476 purified kinases (Homo sapiens, UniProt O43318); conditions: 10 nM compound + 10 µM FKBP12
# Protocol: as §1
# [16] = target: 476 purified kinases (Homo sapiens, UniProt Q13177); conditions: ZLYTE
# Protocol: as §1
# [17] = target: 476 purified kinases (Homo sapiens, UniProt Q9UQM7); conditions: ZLYTE
# Protocol: as §1
# [18] = target: 476 purified kinases (Homo sapiens, UniProt Q52WX2); conditions: ZLYTE
# Protocol: as §1
# [19] = target: 476 purified kinases (Homo sapiens, UniProt Q9Y6E0); conditions: ZLYTE
# Protocol: as §1
# [20] = target: 476 purified kinases (Homo sapiens, UniProt P43405); conditions: ZLYTE
# Protocol: as §1
# [21] = target: 476 purified kinases (Homo sapiens, UniProt Q96BR1); conditions: ZLYTE
# Protocol: as §1
# [22] = target: 476 purified kinases (Homo sapiens, UniProt O75747)
# Protocol: as §1
# [23] = target: 476 purified kinases (Homo sapiens, UniProt P48729); conditions: ZLYTE
# Protocol: as §1
# [24] = target: 476 purified kinases (Homo sapiens, UniProt Q8NI60)
# Protocol: as §1
# [25] = target: 476 purified kinases (Homo sapiens, UniProt Q96GX5)
# Protocol: as §1
# [26] = target: 476 purified kinases (Homo sapiens, UniProt P57058)
# Protocol: as §1
# [27] = target: 476 purified kinases (Homo sapiens, UniProt Q8NEB9)
# Protocol: as §1
# [28] = target: 476 purified kinases (Homo sapiens, UniProt P19525)
# Protocol: as §1
# [29] = target: 476 purified kinases (Homo sapiens, UniProt Q9H4B4); conditions: ZLYTE
# Protocol: as §1
# [30] = target: 476 purified kinases (Homo sapiens, UniProt Q9UEW8)
# Protocol: as §1
# [31] = target: 476 purified kinases (Homo sapiens, UniProt Q8WXR4)
# Protocol: as §1
# [32] = target: 476 purified kinases (Homo sapiens, UniProt Q15835)
# Protocol: as §1
# [33] = target: 476 purified kinases (Homo sapiens, UniProt Q9UIK4); conditions: 10 nM compound + 10 µM FKBP12
# Protocol: as §1
# [34] = target: 476 purified kinases (Homo sapiens, UniProt Q9Y3S1)
# Protocol: as §1
# [35] = target: 476 purified kinases (Homo sapiens, UniProt Q15208)
# Protocol: as §1
# [36] = target: 476 purified kinases (Homo sapiens, UniProt Q13554); conditions: ZLYTE
# Protocol: as §1
# Chain of 476 purified kinases (Homo sapiens, UniProt Q00535) (Q00535 whole entry): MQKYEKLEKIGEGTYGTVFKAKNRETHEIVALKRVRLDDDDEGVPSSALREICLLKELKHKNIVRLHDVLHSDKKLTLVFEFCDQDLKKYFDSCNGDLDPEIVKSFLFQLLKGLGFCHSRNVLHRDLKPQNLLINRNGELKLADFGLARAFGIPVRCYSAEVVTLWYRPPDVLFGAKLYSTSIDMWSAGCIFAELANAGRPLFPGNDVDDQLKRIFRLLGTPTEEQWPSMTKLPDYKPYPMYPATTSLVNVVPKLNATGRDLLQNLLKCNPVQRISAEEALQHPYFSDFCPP
# Chain of 476 purified kinases (Homo sapiens, UniProt Q9NRM7) (Q9NRM7 whole entry): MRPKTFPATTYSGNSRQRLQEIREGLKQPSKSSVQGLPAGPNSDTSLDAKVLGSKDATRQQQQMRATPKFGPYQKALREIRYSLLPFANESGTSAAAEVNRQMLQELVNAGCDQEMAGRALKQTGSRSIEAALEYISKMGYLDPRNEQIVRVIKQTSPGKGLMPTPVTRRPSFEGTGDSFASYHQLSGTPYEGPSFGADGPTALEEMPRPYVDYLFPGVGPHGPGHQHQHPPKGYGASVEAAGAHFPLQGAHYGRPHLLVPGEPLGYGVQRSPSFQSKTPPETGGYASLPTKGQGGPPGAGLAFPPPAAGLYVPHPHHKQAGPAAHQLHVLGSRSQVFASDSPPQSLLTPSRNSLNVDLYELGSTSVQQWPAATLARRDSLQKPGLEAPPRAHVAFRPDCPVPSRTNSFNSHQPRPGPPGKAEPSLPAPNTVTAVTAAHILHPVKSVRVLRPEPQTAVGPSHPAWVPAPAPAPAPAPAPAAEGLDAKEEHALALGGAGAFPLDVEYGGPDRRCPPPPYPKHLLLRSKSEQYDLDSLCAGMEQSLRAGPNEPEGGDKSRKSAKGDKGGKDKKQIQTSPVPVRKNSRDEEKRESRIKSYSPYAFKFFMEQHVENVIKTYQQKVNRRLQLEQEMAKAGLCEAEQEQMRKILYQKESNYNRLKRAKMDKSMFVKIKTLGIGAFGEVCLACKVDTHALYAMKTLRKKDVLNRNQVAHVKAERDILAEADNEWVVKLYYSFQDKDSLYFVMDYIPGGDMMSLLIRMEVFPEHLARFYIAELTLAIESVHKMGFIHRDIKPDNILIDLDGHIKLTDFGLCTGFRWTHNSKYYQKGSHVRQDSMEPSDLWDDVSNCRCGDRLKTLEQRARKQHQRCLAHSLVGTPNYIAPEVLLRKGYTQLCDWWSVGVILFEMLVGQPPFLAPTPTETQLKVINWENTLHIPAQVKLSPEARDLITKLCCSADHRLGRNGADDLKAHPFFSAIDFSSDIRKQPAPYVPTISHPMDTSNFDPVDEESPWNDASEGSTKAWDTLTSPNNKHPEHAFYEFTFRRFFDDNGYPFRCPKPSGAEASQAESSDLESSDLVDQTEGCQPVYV
# Chain of 476 purified kinases (Homo sapiens, UniProt P48729) (P48729 whole entry): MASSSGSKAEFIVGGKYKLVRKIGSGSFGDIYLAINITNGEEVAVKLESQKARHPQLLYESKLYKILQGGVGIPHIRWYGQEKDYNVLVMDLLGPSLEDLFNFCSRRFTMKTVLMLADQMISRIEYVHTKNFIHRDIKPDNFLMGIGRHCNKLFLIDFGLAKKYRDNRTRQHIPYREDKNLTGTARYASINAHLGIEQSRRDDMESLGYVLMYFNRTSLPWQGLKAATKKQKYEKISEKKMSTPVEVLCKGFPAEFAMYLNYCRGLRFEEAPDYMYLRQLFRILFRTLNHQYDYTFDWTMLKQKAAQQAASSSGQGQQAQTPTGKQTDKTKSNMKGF
# Chain of 476 purified kinases (Homo sapiens, UniProt Q8WXR4) (Q8WXR4 whole entry): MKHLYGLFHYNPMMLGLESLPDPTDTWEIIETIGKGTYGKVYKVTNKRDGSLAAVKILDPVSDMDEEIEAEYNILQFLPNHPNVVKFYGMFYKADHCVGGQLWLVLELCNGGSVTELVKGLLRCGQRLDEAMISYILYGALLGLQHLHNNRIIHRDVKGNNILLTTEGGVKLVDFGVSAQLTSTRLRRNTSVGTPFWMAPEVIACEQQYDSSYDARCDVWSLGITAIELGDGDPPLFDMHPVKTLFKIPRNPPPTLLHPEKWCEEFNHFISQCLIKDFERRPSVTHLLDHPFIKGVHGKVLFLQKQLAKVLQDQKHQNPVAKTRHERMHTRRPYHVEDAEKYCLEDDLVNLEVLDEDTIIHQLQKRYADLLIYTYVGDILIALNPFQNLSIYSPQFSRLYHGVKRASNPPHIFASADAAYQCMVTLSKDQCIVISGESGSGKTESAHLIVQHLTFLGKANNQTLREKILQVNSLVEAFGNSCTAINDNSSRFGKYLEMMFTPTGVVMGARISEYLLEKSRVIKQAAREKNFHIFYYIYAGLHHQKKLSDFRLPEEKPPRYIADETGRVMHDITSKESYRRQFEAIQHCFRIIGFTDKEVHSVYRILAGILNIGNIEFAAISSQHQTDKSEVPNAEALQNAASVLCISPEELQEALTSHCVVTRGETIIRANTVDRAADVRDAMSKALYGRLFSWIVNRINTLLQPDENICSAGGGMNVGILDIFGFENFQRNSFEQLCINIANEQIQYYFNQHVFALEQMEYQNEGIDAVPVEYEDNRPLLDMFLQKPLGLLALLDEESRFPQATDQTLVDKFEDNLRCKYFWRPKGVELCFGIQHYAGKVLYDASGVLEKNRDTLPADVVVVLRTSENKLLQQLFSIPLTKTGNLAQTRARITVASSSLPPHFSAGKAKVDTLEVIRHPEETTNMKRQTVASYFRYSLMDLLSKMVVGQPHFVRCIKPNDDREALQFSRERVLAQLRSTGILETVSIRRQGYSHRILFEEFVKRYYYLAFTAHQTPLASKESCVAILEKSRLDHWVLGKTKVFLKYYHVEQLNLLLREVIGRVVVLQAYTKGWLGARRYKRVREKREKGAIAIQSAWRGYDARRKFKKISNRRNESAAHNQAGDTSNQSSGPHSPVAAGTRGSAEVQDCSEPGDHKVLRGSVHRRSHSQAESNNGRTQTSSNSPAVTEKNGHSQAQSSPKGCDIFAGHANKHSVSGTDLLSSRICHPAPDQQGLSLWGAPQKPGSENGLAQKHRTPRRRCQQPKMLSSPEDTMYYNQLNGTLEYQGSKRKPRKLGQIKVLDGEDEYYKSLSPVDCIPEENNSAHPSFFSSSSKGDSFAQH
# Chain of 476 purified kinases (Homo sapiens, UniProt Q13177) (Q13177 whole entry): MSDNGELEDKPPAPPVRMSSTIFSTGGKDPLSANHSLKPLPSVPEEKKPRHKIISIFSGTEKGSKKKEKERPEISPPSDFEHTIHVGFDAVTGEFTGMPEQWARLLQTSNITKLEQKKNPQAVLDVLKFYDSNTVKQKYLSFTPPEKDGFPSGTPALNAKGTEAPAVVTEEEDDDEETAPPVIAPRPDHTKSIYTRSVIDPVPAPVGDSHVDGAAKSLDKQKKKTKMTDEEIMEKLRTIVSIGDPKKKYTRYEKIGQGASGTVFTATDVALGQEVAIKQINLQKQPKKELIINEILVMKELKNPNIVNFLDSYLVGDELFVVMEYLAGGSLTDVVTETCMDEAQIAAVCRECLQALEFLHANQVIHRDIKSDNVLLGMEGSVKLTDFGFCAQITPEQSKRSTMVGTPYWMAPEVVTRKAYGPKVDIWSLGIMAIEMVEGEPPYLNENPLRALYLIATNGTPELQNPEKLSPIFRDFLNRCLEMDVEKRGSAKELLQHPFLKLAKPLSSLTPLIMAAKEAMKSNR
# Chain of 476 purified kinases (Homo sapiens, UniProt Q9NR20) (Q9NR20 whole entry): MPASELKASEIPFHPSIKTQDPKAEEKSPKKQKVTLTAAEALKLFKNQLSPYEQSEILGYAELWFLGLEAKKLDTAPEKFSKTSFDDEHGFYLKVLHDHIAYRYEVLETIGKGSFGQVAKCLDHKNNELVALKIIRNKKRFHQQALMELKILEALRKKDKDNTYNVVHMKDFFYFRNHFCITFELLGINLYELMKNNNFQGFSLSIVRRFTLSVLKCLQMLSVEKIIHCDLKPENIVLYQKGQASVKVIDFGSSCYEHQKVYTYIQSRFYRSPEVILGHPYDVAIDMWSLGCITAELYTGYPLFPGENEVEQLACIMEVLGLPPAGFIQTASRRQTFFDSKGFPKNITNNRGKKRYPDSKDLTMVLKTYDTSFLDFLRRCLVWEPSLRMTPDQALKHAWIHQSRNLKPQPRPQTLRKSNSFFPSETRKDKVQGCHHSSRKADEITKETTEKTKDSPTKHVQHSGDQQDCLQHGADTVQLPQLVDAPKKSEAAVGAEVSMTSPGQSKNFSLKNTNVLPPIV
# Chain of 476 purified kinases (Homo sapiens, UniProt Q8NFD2) (Q8NFD2 whole entry): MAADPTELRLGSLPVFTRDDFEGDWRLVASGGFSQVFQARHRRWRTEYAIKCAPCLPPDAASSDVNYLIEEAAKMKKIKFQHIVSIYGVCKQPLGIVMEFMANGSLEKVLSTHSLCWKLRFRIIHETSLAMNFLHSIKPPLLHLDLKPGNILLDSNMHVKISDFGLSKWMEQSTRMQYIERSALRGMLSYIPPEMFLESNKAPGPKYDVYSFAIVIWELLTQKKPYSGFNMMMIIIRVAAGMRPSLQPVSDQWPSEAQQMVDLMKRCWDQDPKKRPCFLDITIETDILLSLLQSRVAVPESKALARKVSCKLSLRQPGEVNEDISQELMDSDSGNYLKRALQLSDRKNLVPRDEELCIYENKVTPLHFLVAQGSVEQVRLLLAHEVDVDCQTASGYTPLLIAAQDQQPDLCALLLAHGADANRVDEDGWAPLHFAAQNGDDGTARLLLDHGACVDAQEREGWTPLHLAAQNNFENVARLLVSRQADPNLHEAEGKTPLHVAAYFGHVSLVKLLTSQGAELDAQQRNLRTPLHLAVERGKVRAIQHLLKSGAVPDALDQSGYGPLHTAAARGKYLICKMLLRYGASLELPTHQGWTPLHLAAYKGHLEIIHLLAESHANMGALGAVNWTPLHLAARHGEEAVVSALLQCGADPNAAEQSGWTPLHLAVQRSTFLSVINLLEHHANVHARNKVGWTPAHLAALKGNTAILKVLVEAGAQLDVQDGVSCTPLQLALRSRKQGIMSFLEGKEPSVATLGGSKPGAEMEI
compound,measurement,setting,value
Cc1nc(Nc2ncc(C(=O)Nc3c(C)cccc3Cl)s2)cc(N2CCN(CCO)CC2)n1 [Dasatinib],DAPK3 (ZIPK) (kinase profiling),[1]; 10 nM,2
same,DAPK3 (ZIPK) (kinase profiling),[1]; 10 nM + 10 µM FKBP12,0
same,GRK7 (kinase profiling),[2]; 10 nM,3
same,GRK7 (kinase profiling),[2]; 10 nM + 10 µM FKBP12,-1
same,ANKK1 (LanthaScreen Binding),[3]; 10 nM compound,1
same,ANKK1 (LanthaScreen Binding),[3]; 10 nM compound + 10 µM FKBP12,11
same,DCAMKL1 (DCLK1) (kinase profiling),[4]; 10 nM,1
same,DCAMKL1 (DCLK1) (kinase profiling),[4]; 10 nM + 10 µM FKBP12,4
same,SRMS (Srm) (kinase profiling),[5]; 10 nM,87
same,SRMS (Srm) (kinase profiling),[5]; 10 nM + 10 µM FKBP12,86
same,STK38L (NDR2) (LanthaScreen Binding),[6]; 10 nM compound,-2
same,STK38L (NDR2) (LanthaScreen Binding),[6]; 10 nM compound + 10 µM FKBP12,-3
same,PIP4K2A (Adapta),[7]; 10 nM compound,-15
same,PIP4K2A (Adapta),[7]; 10 nM compound + 10 µM FKBP12,4
same,BMPR1B (ALK6) (LanthaScreen Binding),[8]; 10 nM compound,7
same,BMPR1B (ALK6) (LanthaScreen Binding),[8]; 10 nM compound + 10 µM FKBP12,-9
same,DYRK4 (kinase profiling),[9]; 10 nM,1
same,DYRK4 (kinase profiling),[9]; 10 nM + 10 µM FKBP12,7
same,PRKACB (PRKAC beta) (LanthaScreen Binding),[10]; 10 nM compound,-9
same,PRKACB (PRKAC beta) (LanthaScreen Binding),[10]; 10 nM compound + 10 µM FKBP12,-3
same,PRKD1 (PKC mu) (kinase profiling),[11]; 10 nM,10
same,PRKD1 (PKC mu) (kinase profiling),[11]; 10 nM + 10 µM FKBP12,12
same,CDK5/p25 (kinase profiling),[12]; 10 nM,2
same,CDK5/p35 (kinase profiling),[12]; 10 nM,4
same,CDK5/p25 (kinase profiling),[12]; 10 nM + 10 µM FKBP12,2
same,CDK5/p35 (kinase profiling),[12]; 10 nM + 10 µM FKBP12,2
same,LATS2 (LanthaScreen Binding),[13]; 10 nM compound,3
same,LATS2 (LanthaScreen Binding),[13]; 10 nM compound + 10 µM FKBP12,2
same,MAPK13 (p38 delta) (kinase profiling),[14]; 10 nM,4
same,MAPK13 (p38 delta) (kinase profiling),[14]; 10 nM + 10 µM FKBP12,6
same,MAP3K7/MAP3K7IP1 (TAK1-TAB1) (LanthaScreen Binding),[15],-7
same,PAK2 (PAK65) (kinase profiling),[16]; 10 nM,11
same,PAK2 (PAK65) (kinase profiling),[16]; 10 nM + 10 µM FKBP12,11
same,CAMK2A (CaMKII alpha) (kinase profiling),[17]; 10 nM,5
same,CAMK2A (CaMKII alpha) (kinase profiling),[17]; 10 nM + 10 µM FKBP12,7
same,SBK1 (kinase profiling),[18]; 10 nM,3
same,SBK1 (kinase profiling),[18]; 10 nM + 10 µM FKBP12,10
same,STK24 (MST3) (kinase profiling),[19]; 10 nM,13
same,STK24 (MST3) (kinase profiling),[19]; 10 nM + 10 µM FKBP12,20
same,SYK (kinase profiling),[20]; 10 nM,6
same,SYK (kinase profiling),[20]; 10 nM + 10 µM FKBP12,8
same,SGKL (SGK3) (kinase profiling),[21]; 10 nM,7
same,SGKL (SGK3) (kinase profiling),[21]; 10 nM + 10 µM FKBP12,6
same,PIK3C2G (PI3K-C2 gamma) (Adapta),[22]; 10 nM compound,3
same,PIK3C2G (PI3K-C2 gamma) (Adapta),[22]; 10 nM compound + 10 µM FKBP12,-4
same,CSNK1A1 (CK1 alpha 1) (kinase profiling),[23]; 10 nM,-1
same,CSNK1A1 (CK1 alpha 1) (kinase profiling),[23]; 10 nM + 10 µM FKBP12,8
same,ADCK3 (LanthaScreen Binding),[24]; 10 nM compound,-1
same,ADCK3 (LanthaScreen Binding),[24]; 10 nM compound + 10 µM FKBP12,16
same,MASTL (LanthaScreen Binding),[25]; 10 nM compound,0
same,MASTL (LanthaScreen Binding),[25]; 10 nM compound + 10 µM FKBP12,-1
same,HUNK (LanthaScreen Binding),[26]; 10 nM compound,0
same,HUNK (LanthaScreen Binding),[26]; 10 nM compound + 10 µM FKBP12,5
same,PIK3C3 (hVPS34) (Adapta),[27]; 10 nM compound,2
same,PIK3C3 (hVPS34) (Adapta),[27]; 10 nM compound + 10 µM FKBP12,-1
same,EIF2AK2 (PKR) (LanthaScreen Binding),[28]; 10 nM compound,-5
same,EIF2AK2 (PKR) (LanthaScreen Binding),[28]; 10 nM compound + 10 µM FKBP12,-10
same,PLK3 (kinase profiling),[29]; 10 nM,-4
same,PLK3 (kinase profiling),[29]; 10 nM + 10 µM FKBP12,-21
same,STK39 (STLK3) (LanthaScreen Binding),[30]; 10 nM compound,4
same,STK39 (STLK3) (LanthaScreen Binding),[30]; 10 nM compound + 10 µM FKBP12,-5
same,MYO3B (MYO3 beta) (LanthaScreen Binding),[31]; 10 nM compound,3
same,MYO3B (MYO3 beta) (LanthaScreen Binding),[31]; 10 nM compound + 10 µM FKBP12,8
same,GRK1 (LanthaScreen Binding),[32]; 10 nM compound,2
same,GRK1 (LanthaScreen Binding),[32]; 10 nM compound + 10 µM FKBP12,7
same,DAPK2 (LanthaScreen Binding),[33],-11
same,WNK2 (LanthaScreen Binding),[34]; 10 nM compound,0
same,WNK2 (LanthaScreen Binding),[34]; 10 nM compound + 10 µM FKBP12,-1
same,STK38 (NDR) (LanthaScreen Binding),[35]; 10 nM compound,0
same,STK38 (NDR) (LanthaScreen Binding),[35]; 10 nM compound + 10 µM FKBP12,2
same,CAMK2B (CaMKII beta) (kinase profiling),[36]; 10 nM,7
same,CAMK2B (CaMKII beta) (kinase profiling),[36]; 10 nM + 10 µM FKBP12,7
